Results published in patent publication US20220289732A1, “HETEROCYCLIC WDR5 INHIBITORS AS ANTI-CANCER COMPOUNDS” (NOVARTIS AG, priority 2019, published 2022).

Columns and labels:
[1] = system: MV4-11 cells; assay: MV4-11 6-day cell growth CTG (CellTiter-Glo) assay; assay type: cell-based; details: Homo sapiens, MV4-11, 144 h, 6 days, read-out: (c) MLL/WDR5 cell proliferation assay//MLL/WDR5 proliferation MV4:11 Qualified AC50
Outline: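 IC50 comes from a dose-response fit of % inhibition relative to DMSO controls, with viable cells measured by CellTiter-Glo luminescence. Compounds were tested over 12 points (1:3, starting at 50 μM final) on MV4-11 cells plated at 300/well and grown 6 days.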

[2] = biological target: wild type MLL1 four-member complex (MLL1-4C) (Homo sapiens, UniProt P61964); assay: MLL1 LC-MS assay (SAH production); assay type: biochemical; details: read-out: (b) MLL LCMS Peptide Val.v.1 Qualified AC50
Outline: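 SAH formation, measured by LC-MS/MS after a TFA quench containing d4-SAH, was normalised to no-compound and no-enzyme controls and fitted to a dose-response curve for IC50. Reactions ran 120 min at rt (pH 8.0 Tris buffer) with final 30 nM MLL1 four-member complex, 2.5 μM SAM and 10 μM biotinylated H3[1-21] peptide, after a 20-min enzyme/SAM-compound preincubation.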

[3] = biological target: WDR5 (Homo sapiens, UniProt P61964); assay: WDR5 HTRF binding assay; details: read-out: (a) WDR5 HTRF Pep Val v.1[Inhibitor/IC50]Qualified AC50
Outline: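 In this HTRF displacement format, biotinylated MLL1 WIN peptide (3762-3773, 20 nM) binds WDR5 (6 nM) in 25 mM Hepes pH 7.5 with 100 mM NaCl, 2 mM DTT and 0.1% BSA for 20 min at rt. Detection used streptavidin-APC/anti-His-Eu for 1 hr. IC50 came from dose-response fits of normalized signal; 15 nM biotin-PEG-His peptide served as counter assay.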

Row | Structure (SMILES) | AC50 [1] [nM] | AC50 [2] [nM] | IC50 [3] [nM]
1 | CCOc1cc(C(C)N2CCc3c(cc(CCN(C)CC)cc3-c3cc(Cl)nnc3Cl)C2=O)ncc1C#N (stereo not drawn) [Example 168, 6-(1-(5-(3,6-dichloropyridazin-4-yl)-7-(2-(ethyl(methyl)amino)ethyl)-1-oxo-3,4-dihydroisoquinolin-2(1H)-yl)ethyl)-4-ethoxynicotinonitrile] | 10 to 1000 | 10 to 1000 | < 10
2 | CCOc1cc([C@H](C)N2CCc3c(cc(CCN(C)CC)cc3-c3cn(C)c(=O)c(F)c3C)C2=O)ncc1C#N [Example 169, (S)-4-ethoxy-6-(1-(7-(2-(ethyl(methyl)amino)ethyl)-5-(5-fluoro-1,4-dimethyl-6-oxo-1,6-dihydropyridin-3-yl)-1-oxo-3,4-dihydroisoquinolin-2(1H)-yl)ethyl)nicotinonitrile] | 10 to 1000 | 10 to 1000 | < 10
3 | CCOc1cc([C@H](C)N2CCc3c(cc(CCN(C)CC)cc3-c3cn(C)c(=O)c(Cl)c3C)C2=O)ncc1C#N [Example 170, (S)-6-(1-(5-(5-chloro-1,4-dimethyl-6-oxo-1,6-dihydropyridin-3-yl)-7-(2-(ethyl(methyl)amino)ethyl)-1-oxo-3,4-dihydroisoquinolin-2(1H)-yl)ethyl)-4-ethoxynicotinonitrile] | 10 to 1000 | 10 to 1000 | < 10
4 | CCOc1cc([C@H](C)N2CCc3c(cc(CCN(C)CC)cc3-c3cn(CC)c(=O)cc3C)C2=O)ncc1C#N [Example 171, (S)-4-ethoxy-6-(1-(7-(2-(ethyl(methyl)amino)ethyl)-5-(1-ethyl-4-methyl-6-oxo-1,6-dihydropyridin-3-yl)-1-oxo-3,4-dihydroisoquinolin-2(1H)-yl)ethyl)nicotinonitrile] | 10 to 1000 | 10 to 1000 | < 10
5 | CCOc1cc([C@H](C)N2CCc3c(cc(CCN(C)CC)cc3-c3cc(C)ncc3C(F)F)C2=O)ncc1C#N [Example 172, (S)-6-(1-(5-(5-(difluoromethyl)-2-methylpyridin-4-yl)-7-(2-(ethyl(methyl)amino)ethyl)-1-oxo-3,4-dihydroisoquinolin-2(1H)-yl)ethyl)-4-ethoxynicotinonitrile] | 10 to 1000 | 10 to 1000 | < 10
6 | CCOc1cc([C@H](C)N2CCc3c(cc(CCN(C)CC)cc3-c3cc(C)nnc3C)C2=O)ncc1C#N [Example 173, (S)-6-(1-(5-(3,6-dimethylpyridazin-4-yl)-7-(2-(ethyl(methyl)amino)ethyl)-1-oxo-3,4-dihydroisoquinolin-2(1H)-yl)ethyl)-4-ethoxynicotinonitrile] | 10 to 1000 | 10 to 1000 | < 10
7 | CCOc1cc([C@H](C)N2CCc3c(cc(CCN(C)CC)cc3-c3cn(C(F)F)c(=O)cc3Cl)C2=O)ncc1C#N [Example 174, (S)-6-(1-(5-(4-chloro-1-(difluoromethyl)-6-oxo-1,6-dihydropyridin-3-yl)-7-(2-(ethyl(methyl)amino)ethyl)-1-oxo-3,4-dihydroisoquinolin-2(1H)-yl)ethyl)-4 ethoxynicotinonitrile] | 10 to 1000 | 10 to 1000 | < 10
8 | CCOc1cc([C@H](C)N2CCc3c(cc(CCN(C)CC)cc3-c3cn(C)c(=O)cc3Cl)C2=O)ncc1C#N [Example 175, (S)-6-(1-(5-(4-chloro-1-methyl-6-oxo-1,6-dihydropyridin-3-yl)-7-(2-(ethyl(methyl)amino)ethyl)-1-oxo-3,4-dihydroisoquinolin-2(1H)-yl)ethyl)-4-ethoxynicotinonitrile] | 10 to 1000 | 10 to 1000 | < 10
9 | CCOc1cc([C@H](C)N2CCc3c(cc(CCN(C)CC)cc3-c3c[nH]c(=O)cc3C(F)(F)F)C2=O)ncc1C#N [Example 176, (S)-4-ethoxy-6-(1-(7-(2-(ethyl(methyl)amino)ethyl)-1-oxo-5-(6-oxo-4-(trifluoromethyl)-1,6-dihydropyridin-3-yl)-3,4-dihydroisoquinolin-2(1H)-yl)ethyl)nicotinonitrile] | < 10 | 10 to 1000 | < 10
10 | CCOc1cc([C@H](C)N2CCc3c(cc(CCN(C)CC)cc3-c3cc(C(F)F)cnc3C)C2=O)ncc1C#N [Example 177, (S)-6-(1-(5-(5-(difluoromethyl)-2-methylpyridin-3-yl)-7-(2-(ethyl(methyl)amino)ethyl)-1-oxo-3,4-dihydroisoquinolin-2(1H)-yl)ethyl)-4-ethoxynicotinonitrile] | 10 to 1000 | 10 to 1000 | < 10
11 | CCOc1cc([C@H](C)N2CCc3c(cc(CCN(C)CC)cc3-c3ccc(N)nc3Cl)C2=O)ncc1C#N [Example 178, (S)-6-(1-(5-(6-amino-2-chloropyridin-3-yl)-7-(2-(ethyl(methyl)amino)ethyl)-1-oxo-3,4-dihydroisoquinolin-2(1H)-yl)ethyl)-4-ethoxynicotinonitrile] | 10 to 1000 | 10 to 1000 | < 10
12 | CCOc1cc(CN2CCc3c(cc(CCN(C)CC)cc3-c3cc(C)ncc3C)C2=O)ncc1C#N [Example 179, 6-((5-(2,5-dimethylpyridin-4-yl)-7-(2-(ethyl(methyl)amino)ethyl)-1-oxo-3,4-dihydroisoquinolin-2(1H)-yl)rnethyl)-4-ethoxynicotinonitrile] | 10 to 1000 | 10 to 1000 | < 10
13 | CCOc1cc(CN2CCc3c(cc(CCN(C)CC)cc3-c3cc(N)ncc3C)C2=O)ncc1C#N [Example 180, 6-((5-(2-amino-5-methylpyridin-4-yl)-7-(2-(ethyl(methyl)amino)ethyl)-1-oxo-3,4-dihydroisoquinolin-2(1H)-yl)rnethyl)-4-ethoxynicotinonitrile] | 10 to 1000 | 10 to 1000 | < 10
14 | CCOc1cc([C@H](C)N2CCc3c(cc(CCN(C)CC)cc3-c3cc4ocnc4nc3C)C2=O)ncc1C#N [Example 181, (S)-4-ethoxy-6-(1-(7-(2-(ethyl(methyl)amino)ethyl)-5-(5-methyloxazolo[4,5-b]pyridin-6-yl)-1-oxo-3,4-dihydroisoquinolin-2(1H)-yl)ethyl)nicotinonitrile] | 10 to 1000 | 10 to 1000 | < 10
15 | CCOc1cc([C@H](C)N2CCc3c(cc(CCN(C)CC)cc3-c3cn(C)c(=O)cc3C(F)(F)F)C2=O)ncc1C#N [Example 182, (S)-4-ethoxy-6-(1-(7-(2-(ethyl(methyl)amino)ethyl)-5-(1-methyl-6-oxo-4-(trifluoromethyl)-1,6-dihydropyridin-3-yl)-1-oxo-3,4-dihydroisoquinolin-2(1H)-yl)ethyl)nicotinonitrile] | 10 to 1000 | 10 to 1000 | < 10
16 | CCOc1cc([C@H](C)N2CCc3c(cc(CCN(C)CC)cc3-c3cc(N)ncc3Cl)C2=O)ncc1C#N [Example 183, (S)-6-(1-(5-(2-amino-5-chloropyridin-4-yl)-7-(2-(ethyl(methyl)amino)ethyl)-1-oxo-3,4-dihydroisoquinolin-2(1H)-yl)ethyl)-4-ethoxynicotinonitrile] | 10 to 1000 | 10 to 1000 | < 10
17 | CCOc1cc([C@H](C)N2CCc3c(cc(CCN(C)CC)cc3-c3cc(C(C)(C)O)ncc3C)C2=O)ncc1C#N [Example 184, (S)-4-ethoxy-6-(1-(7-(2-(ethyl(methyl)amino)ethyl)-5-(2-(2-hydroxypropan-2-yl)-5-methylpyridin-4-yl)-1-oxo-3,4-dihydroisoquinolin-2(1H)-yl)ethyl)nicotinonitrile] | 10 to 1000 | 10 to 1000 | < 10
